Values quoted from earlier work in patent US20070082903A1, “Remedy for rheumatoid arthritis” (priority 2003, published 2007).

Test system: mice with collagen arthritis
Conditions: cited from earlier work

For `C[C@@H](c1ccc(-c2ccccc2)c(F)c1)c1cc(/N=C(/N)N2CCOCC2)on1` [SMP-114, 3-[(1S)-1-(2-fluorobiphenyl-4-yl)ethyl]-5-{[amino(morpholin-4-yl)methylene]amino}isoxazole], which antiarthritic effect (mice with collagen arthritis) is on record?
The antiarthritic effect was “antiarthritic effect”.

What about the “minimum effective amount for antiarthritic effect” value (once-a-day oral administration) of the same compound?
The value was 5 mg/kg.
